Source: patent US10729135B2, “Methods of controlling pests using terpendoles” (priority 2017, dated 2020)

Columns and labels:
Format in all cases: in vivo
[1] = test system: brown rice planthopper (Nilaparvata lugens); assay: whole plant or invertebrate; conditions: Nilaparvata lugens, 144 h, 500 ppm, 3rd-4th instar, 6 DAT, read-out: Mortality score
Description: (§1) A bioefficacy assay utilizing terpendole C was conducted on the lepidopterans: diamondback moth (Plutella xylostella) and common cutworm (Spodoptera litura): the whitefly, tobacco whitefly (Bemisia tabaci) the thrips, western flower thrips (Frankliniella occidentalis); the planthopper, brown rice planthopper (Nilaparvata lugens); the aphids, cotton aphid (Aphis gossypii), foxglove aphid (Aulacorthum solani), cabbage aphid (Brevicoryne brassicae), birdcherry-oat aphid (Rhopalosiphum padi), green peach aphid (Myzus persicae); and the mite, two-spotted spider mite (Tetranychus urticae). Specifically, terpendole C was diluted with acetone and 5% Tween® 20 and finally diluted with water to prepare spray solutions. Terpendole C was then applied to plants as a foliar spray at 500, 200, 50, 12.5, 3.1, 1, 0.8 and/or 0.2 ppm and/or as a soil treatment at 2,500, 1,000, 250, 63, 16, 4 and/or 1 ppm. Pests were then placed on the plant or in the soil. Further, mortality and appetite suppression were recorded at 6, 7 and/or 13 days after treatment (“DAT”) and are reported in Tables 2 and 3, below, respectively.

[2] = test system: tobacco whitefly (Bemisia tabaci); assay: whole plant or invertebrate
Description: as §1

[3] = test system: cotton aphid (Aphis gossypii); assay: whole plant or invertebrate
Description: as §1

[4] = test system: common cutworm (Spodoptera litura); assay: whole plant or invertebrate
Description: as §1

[5] = test system: foxglove aphid (Aulacorthum solani); assay: whole plant or invertebrate
Description: as §1

[6] = test system: western flower thrips (Frankliniella occidentalis); assay: whole plant or invertebrate
Description: as §1

[7] = test system: green peach aphids (Myzus persicae); assay: LC50 biological efficacy assay on green peach aphids, aerosolized dilutions on infested radish leaves
Description: Biological efficacy assays utilizing terpendoles were conducted on green peach aphids (Myzus persicae). Specifically, terpendole A, terpendole C, terpendole J, terpendole K, terpendole N, terpendole O and terpendole P were each separately applied in serial dilutions to determine the concentration at which 50% control of green peach aphids occurred over a period of 24-48 hours (“LC50”). Radish leaves infested with green peach aphids were treated, top and bottom, with a total of 500 μl of an aerosolized terpendole dilution. Treated, aphid infested leaves were held in greenhouse conditions and evaluated for efficacy at 24 and 48 h.

Question: With `CC(C)=C[C@H]1O[C@H]2[C@H]3O[C@@]34[C@H](CC[C@@]3(C)[C@@]4(O)CC[C@H]4Cc5c([nH]c6ccccc56)[C@@]43C)O[C@@H]2C(C)(C)O1` [Terpendole C, terpendole C] as the compound, how does the mortality at 500 ppm [1] read?
Answer: Its mortality at 500 ppm is < 29%.

Question: What about the Mortality score ([2]; 12.5 ppm, Cabbage, 1st instar, 7 DAT) of the same compound?
Answer: Its Mortality score is 0-2.

Question: What about the mortality at 0.8 ppm ([2]; Bemisia tabaci, 168 h, 0.8 ppm, Cabbage, 1st instar, 7 DAT, read-out: Mortality score) of the same compound?
Answer: The mortality at 0.8 ppm was < 29%.

Question: And the mortality at 1 ppm ([2]; Bemisia tabaci, 168 h, 1 ppm, Cabbage, 1st instar, 7 DAT, read-out: Mortality score (converted))?
Answer: Its mortality at 1 ppm is 50%.

Question: What about the mortality at 3.1 ppm ([2]; Bemisia tabaci, 168 h, 3.1 ppm, Cabbage, 1st instar, 7 DAT, read-out: Mortality score (converted)) of the same compound?
Answer: Its mortality at 3.1 ppm is 50%.

Question: And the mortality at 50 ppm ([2]; Bemisia tabaci, 168 h, 50 ppm, Cabbage, 1st instar, 7 DAT, read-out: Mortality score)?
Answer: The mortality at 50 ppm was < 29%.

Question: And the mortality at 200 ppm ([2]; Bemisia tabaci, 168 h, 200 ppm, Cabbage, 1st instar, 7 DAT, read-out: Mortality score)?
Answer: The mortality at 200 ppm was < 29%.

Question: What about the mortality at 500 ppm ([2]; Bemisia tabaci, 168 h, 500 ppm, Cabbage, 1st instar, 7 DAT, read-out: Mortality score) of the same compound?
Answer: Its mortality at 500 ppm is < 29%.

Question: And the “control of the whitefly (in words)” value ([2]; summary of results)?
Answer: Its value is “significantly controlled”.

Question: What about the Mortality score ([3]; 12.5 ppm, Cucumber, All stages, 6 DAT) of the same compound?
Answer: Its Mortality score is 3-4.

Question: And the mortality at 0.2 ppm ([3]; Aphis gossypii, 144 h, 0.2 ppm, Cucumber, All stages, 6 DAT, read-out: Mortality score)?
Answer: Its mortality at 0.2 ppm is < 29%.

Question: And the mortality at 0.8 ppm ([3]; Aphis gossypii, 144 h, 0.8 ppm, Cucumber, All stages, 6 DAT, read-out: Mortality score (converted))?
Answer: The mortality at 0.8 ppm was 75%.

Question: What about the mortality at 3.1 ppm ([3]; Aphis gossypii, 144 h, 3.1 ppm, Cucumber, All stages, 6 DAT, read-out: Mortality score (converted)) of the same compound?
Answer: Its mortality at 3.1 ppm is 90%.

Question: What about the mortality at 50 ppm ([3]; Aphis gossypii, 144 h, 50 ppm, Cucumber, All stages, 6 DAT, read-out: Mortality score (converted)) of the same compound?
Answer: The mortality at 50 ppm was 90%.

Question: And the mortality at 200 ppm ([3]; Aphis gossypii, 144 h, 200 ppm, Cucumber, All stages, 6 DAT, read-out: Mortality score (converted))?
Answer: The mortality at 200 ppm was 100%.

Question: What about the mortality at 500 ppm ([3]; Aphis gossypii, 144 h, 500 ppm, Cucumber, All stages, 6 DAT, read-out: Mortality score (converted)) of the same compound?
Answer: Its mortality at 500 ppm is 100%.

Question: What about the “control of cotton aphids (in words)” value ([3]; summary of Table 2) of the same compound?
Answer: The value was “effectively controlled”.

Question: What about the Appetite suppression score ([4]; 12.5 ppm, Cabbage, 4th instar, 6 DAT) of the same compound?
Answer: The Appetite suppression score was 4 (4 = 70-100% suppression).

Question: And the Appetite suppression score ([4]; 50 ppm, Cabbage, 4th instar, 6 DAT)?
Answer: The Appetite suppression score was 4 (4 = 70-100% suppression).

Question: And the Appetite suppression score ([4]; 200 ppm, Cabbage, 4th instar, 6 DAT)?
Answer: Its Appetite suppression score is 4 (4 = 70-100% suppression).

Question: What about the Appetite suppression score ([4]; 500 ppm, Cabbage, 4th instar, 6 DAT) of the same compound?
Answer: The Appetite suppression score was 4 (4 = 70-100% suppression).

Question: And the mortality at 12.5 ppm ([4]; Spodoptera litura, 144 h, 12.5 ppm, Cabbage, 4th instar, 6 DAT, read-out: Mortality score)?
Answer: Its mortality at 12.5 ppm is < 29%.

Question: And the mortality at 50 ppm ([4]; Spodoptera litura, 144 h, 50 ppm, Cabbage, 4th instar, 6 DAT, read-out: Mortality score)?
Answer: The mortality at 50 ppm was < 29%.

Question: What about the mortality at 200 ppm ([4]; Spodoptera litura, 144 h, 200 ppm, Cabbage, 4th instar, 6 DAT, read-out: Mortality score) of the same compound?
Answer: Its mortality at 200 ppm is < 29%.

Question: And the mortality at 500 ppm ([4]; Spodoptera litura, 144 h, 500 ppm, Cabbage, 4th instar, 6 DAT, read-out: Mortality score)?
Answer: The mortality at 500 ppm was < 29%.

Question: What about the “control of common cutworm (in words)” value ([4]; either by killing the larvae or suppressing the appetite of the larvae) of the same compound?
Answer: The value was “effectively controlled”.

Question: What about the Appetite suppression score ([5]; 12.5 ppm, Kidney Bean, Adult, 6 DAT) of the same compound?
Answer: The Appetite suppression score was 0.

Question: What about the Appetite suppression score ([5]; 50 ppm, Kidney Bean, Adult, 6 DAT) of the same compound?
Answer: Its Appetite suppression score is 0.

Question: What about the Appetite suppression score ([5]; 200 ppm, Kidney Bean, Adult, 6 DAT) of the same compound?
Answer: The Appetite suppression score was 0.

Question: What about the Appetite suppression score ([5]; 500 ppm, Kidney Bean, Adult, 6 DAT) of the same compound?
Answer: The Appetite suppression score was 2 (2 = about 25% suppression).

Question: And the mortality at 12.5 ppm ([5]; Aulacorthum solani, 144 h, 12.5 ppm, Kidney Bean, Adult, 6 DAT, read-out: Mortality score)?
Answer: The mortality at 12.5 ppm was < 29%.

Question: And the mortality at 50 ppm ([5]; Aulacorthum solani, 144 h, 50 ppm, Kidney Bean, Adult, 6 DAT, read-out: Mortality score)?
Answer: Its mortality at 50 ppm is < 29%.

Question: And the mortality at 200 ppm ([5]; Aulacorthum solani, 144 h, 200 ppm, Kidney Bean, Adult, 6 DAT, read-out: Mortality score (converted))?
Answer: The mortality at 200 ppm was 50%.

Question: What about the mortality at 500 ppm ([5]; Aulacorthum solani, 144 h, 500 ppm, Kidney Bean, Adult, 6 DAT, read-out: Mortality score (converted)) of the same compound?
Answer: Its mortality at 500 ppm is 75%.

Question: What about the “control of foxglove aphids (in words)” value ([5]; summary of Table 2) of the same compound?
Answer: The value was “effectively controlled”.

Question: What about the Appetite suppression score ([6]; 12.5 ppm, Kidney Bean, 1st-2nd instar, 6 DAT) of the same compound?
Answer: The Appetite suppression score was 3-4.

Question: And the Appetite suppression score ([6]; 50 ppm, Kidney Bean, 1st-2nd instar, 6 DAT)?
Answer: The Appetite suppression score was 3-4.

Question: What about the Appetite suppression score ([6]; 200 ppm, Kidney Bean, 1st-2nd instar, 6 DAT) of the same compound?
Answer: Its Appetite suppression score is 3-4.

Question: And the Appetite suppression score ([6]; 500 ppm, Kidney Bean, 1st-2nd instar, 6 DAT)?
Answer: Its Appetite suppression score is 3-4.

Question: And the mortality at 0.2 ppm ([6]; Frankliniella occidentalis, 144 h, 0.2 ppm, Kidney Bean, 1st-2nd instar, 6 DAT, read-out: Mortality score)?
Answer: Its mortality at 0.2 ppm is < 29%.

Question: And the mortality at 0.8 ppm ([6]; Frankliniella occidentalis, 144 h, 0.8 ppm, Kidney Bean, 1st-2nd instar, 6 DAT, read-out: Mortality score)?
Answer: The mortality at 0.8 ppm was < 29%.

Question: And the mortality at 3.1 ppm ([6]; Frankliniella occidentalis, 144 h, 3.1 ppm, Kidney Bean, 1st-2nd instar, 6 DAT, read-out: Mortality score)?
Answer: The mortality at 3.1 ppm was < 29%.

Question: And the mortality at 12.5 ppm ([6]; Frankliniella occidentalis, 144 h, 12.5 ppm, Kidney Bean, 1st-2nd instar, 6 DAT, read-out: Mortality score)?
Answer: Its mortality at 12.5 ppm is < 29%.

Question: And the mortality at 50 ppm ([6]; Frankliniella occidentalis, 144 h, 50 ppm, Kidney Bean, 1st-2nd instar, 6 DAT, read-out: Mortality score)?
Answer: The mortality at 50 ppm was < 29%.

Question: And the mortality at 200 ppm ([6]; Frankliniella occidentalis, 144 h, 200 ppm, Kidney Bean, 1st-2nd instar, 6 DAT, read-out: Mortality score)?
Answer: Its mortality at 200 ppm is < 29%.

Question: What about the mortality at 500 ppm ([6]; Frankliniella occidentalis, 144 h, 500 ppm, Kidney Bean, 1st-2nd instar, 6 DAT, read-out: Mortality score) of the same compound?
Answer: The mortality at 500 ppm was < 29%.

Question: What about the “control of the thrips (in words)” value ([6]; summary of results) of the same compound?
Answer: The value was “significantly controlled”.

Question: What about the LC50 ([7]; concentration for 50% control over 24-48 hours, infested radish leaves, 500 μl aerosolized dilution) of the same compound?
Answer: The LC50 was 20 ppm.

Question: And the “control of green peach aphids (in words)” value ([7]; summary of Table 1)?
Answer: The value was “effectively controlled”.
